Assay results published in patent publication EP0583821A1, “Atriopeptins, guanylate cyclase activators, and phosphodiesterase inhibitors as treatment for glaucoma, hydrocephalus and cerebral edema (cranial fluid volume dysfunction)” (THE GENERAL HOSPITAL CORPORATION, priority 1987, dated 1988).

Tested on: albino rabbits
Test: Intraocular pressure after unilateral intravitreal injection
Format: in vivo, rabbit
Experimental: The measurement of intraocular pressure (IOP), was performed using procedures similar to those described in Nathanson, Brit. J. Pharmacol., 73:97 (1981) and Nathanson, Current Eye Res., 4:191 (1985). Briefly, male (3-5 kg), New Zealand white rabbits were housed under standard conditions and exposed to a 12 hr light-dark cycle. IOP was measured with a Perkins applanation tonometer after topical anesthesia with 0.4% benoxinate (and 0.25% sodium fluorescein). The tonometer had been calibrated previously by connecting the anterior chamber of enucleated rabbit eyes to a manometer (and reservoir) and taking tonometer readings at different pressures. A number of preliminary IOP readings were made in order to accommodate the animals to the measurement procedure. Readings were then taken just prior to drug or vehicle injection and at 3, 9, 20, 27, 44, 51, 72, and 144 hours post-injection.
Following topical anesthesia with 0.4% benoxinate, rabbits received rat atrial natriuretic peptide 1-28 (rANP) via a 10 microliter, intravitreal injection, through a 30g 1/2" needle, the tip of which was positioned at the approximate center of the eye. Drug was dissolved in a solution of artificial aqueous humor containing (in mmol/liter): NaCl 130, KCl 2.7, […] 18.3, MgCl₂ 1.33, CaCl₂ 1.5, Glucose 10, HEPES 20, and L-ascorbic acid, 2.5. The contralateral eye received a 10 microliter injection of vehicle alone. In order to evaluate the possible effects of intravitreal injection, per se, on IOP, additional rabbits received a 10 microliter intravitreal injection of vehicle in one eye only.
The contralateral eye received intravitreal injection of vehicle alone. Over a period of 9 hours, the ipsilateral eyes underwent a marked decline in pressure of about 5mm (Hg). This degree of hypotension persisted until about 48 hours post-injection and then underwent a slow recovery over the following four days. The decrease in pressure, compared with pre-injection IOP, was statistically significant at all time points from 3 to 72 hours post-injection. Values shown are mean ± SEM. Filled circles represent the IOP in the ipsilateral eye; open circles represent the IOP in the contralateral eye. *(p < .05); **(p < .01), for paired Students T-test relative to preinjection pressure (time 0). […] During the entire period, no affect on pupillary diameter of either the ipsilateral or contralateral eye was noted.
This contralateral decrease was statistically significant (p <.05 vs. pre-injection IOP) at 20 and 44 hours following injection. […]

Substance: Ser-Leu-Arg-Arg-atriopeptin III (APIII) [rANP 1-28]
- persistence of hypotension post-injection (0.3 nmoles intravitreal): about 48 hours
- IOP in the contralateral, vehicle-injected eye (0.3 nmoles intravitreal in ipsilateral eye): also showed a decrease
- decline in intraocular pressure, ipsilateral eye (0.3 nmoles intravitreal, eight albino rabbits, over a period of 9 hours): about 5 mm (Hg)
- effect on pupillary diameter (ipsilateral or contralateral eye, entire period): no affect
